Test results taken from patent US20250186442A1, “Obicetrapib and Ezetimibe Combination Treatment and Fixed Dose Pharmaceutical Compositions” (NewAmsterdam Pharma B.V., priority 2022, published 2025).

Experiments:
[1] = ROSE2 phase 2b clinical trial - safety and tolerability (adverse events); assay type: in vivo, human; conditions: Safety Population
Method: (§1) The exploratory objectives of this study include the following: • To evaluate the effect of obicetrapib 10 mg+ezetimibe 10 mg combination therapy and obicetrapib 10 mg monotherapy, when used as an adjunct to high-intensity statin therapy, on non-high-density lipoprotein cholesterol (non-HDL-C), very low-density lipoprotein cholesterol (VLDL-C), HDL-C, TG, ApoE, Lp(a), and HDL-ApoE at Day 84; • To evaluate the effect of obicetrapib 10 mg+ezetimibe 10 mg combination therapy and obicetrapib 10 mg monotherapy, when used as an adjunct to high-intensity statin therapy, on the proportion of participants achieving predefined LDL-C targets at Day 84; • To assess the mean trough plasma levels of obicetrapib 10 mg+ezetimibe 10 mg combination therapy and obicetrapib 10 mg monotherapy at steady state on Days 28, 84, and 112; and • To evaluate the safety and tolerability profiles of obicetrapib 10 mg+ezetimibe 10 mg combination therapy and obicetrapib 10 mg monotherapy, when used as an adjunct to high-intensity statin therapy, assessed by clinical laboratory values and incidence of AEs.
The safety and tolerability profile of obicetrapib 10 mg, both in combination with ezetimibe 10 mg and as monotherapy, will be assessed by clinical laboratory assessments (chemistry and hematology), vital signs, physical examinations, and the incidence of AEs.
An AE can therefore be any unfavorable and/or unintended sign (including an abnormal laboratory finding), symptom, or disease temporally associated with the use of an investigational medicinal product, whether or not related to the investigational medicinal product. All AEs, including observed or volunteered problems, complaints, or symptoms, are to be recorded on the appropriate eCRF.
AEs, which include clinical laboratory assessment variables, will be monitored and documented from the time of first dose of study treatment until completion of Visit 5. Participants should be instructed to report any AE that they experience to the Investigator, whether or not they think the event is due to study drug. Beginning at the date of the first dose of study treatment, Investigators should make an assessment for AEs at each visit and record the event on the appropriate AE eCRF.
The Investigator will assess the severity (intensity) of each AE as mild, moderate, or severe, and will also categorize each AE as to its potential relationship to study drug using the categories of yes or no.
• Mild—An event that is easily tolerated and generally not interfering with normal daily activities. • Moderate—An event that is sufficiently discomforting to interfere with normal daily activities. • Severe—An event that is incapacitating with inability to work or perform normal daily activities.
An AE or adverse reaction is considered serious if, in the view of either the Investigator or Sponsor, it results in any of the following outcomes: • Death; • A life-threatening AE;
The Safety Population will include all participants who receive at least 1 dose of any study drug. Treatment classification will be based on the actual treatment received. The Safety Population will be the primary population used for the safety analyses.

Lp(a) = assay: ROSE2 phase 2b clinical trial - Lp(a); assay type: in vivo, human; conditions: Exploratory Population
Method: as §1
This study will be a placebo-controlled, double-blind, randomized, Phase 2 study to evaluate the efficacy, safety, and tolerability of obicetrapib 10 mg, both in combination with ezetimibe 10 mg and as monotherapy, as an adjunct to high-intensity statin therapy. This study will take place at approximately 20 sites in the United States.
Up to 2 weeks after the Screening Visit, participants will return to the site on Day 1 (Visit 2) and confirm study eligibility before being randomized and beginning treatment. Approximately 114 eligible participants (38 participants per treatment group) will be randomized in a 1:1:1 ratio to 1 of the following treatment groups: • Combination therapy: Obicetrapib 10 mg+ezetimibe 10 mg (administered as one 10 mg obicetrapib tablet and one 10 mg ezetimibe capsule); • Obicetrapib monotherapy: Obicetrapib 10 mg (administered as one 10 mg obicetrapib tablet and 1 placebo capsule); or • Placebo (administered as 1 placebo tablet and 1 placebo capsule).
The exploratory efficacy endpoints include the following: • Percent change from Day 1 to Day 84 in non-HDL-C, VLDL-C, HDL-C, TG, ApoE, Lp(a), and HDL-ApoE for the obicetrapib 10 mg+ezetimibe 10 mg combination treatment group compared with the placebo group and for the obicetrapib 10 mg monotherapy treatment group compared with the placebo group; and • Proportion of participants at Day 84 that achieve LDL-C<2.6 mmol/L (<100 mg/dL), LDL-C<1.8 mmol/L (<70 mg/dL), and LDL-C<1.3 mmol/L (<50 mg/dL) for the obicetrapib 10 mg+ezetimibe 10 mg combination treatment group compared with the placebo group and for the obicetrapib 10 mg monotherapy treatment group compared with the placebo group.
Blood samples for the lipid profile must be obtained under fasting conditions (ie, after the participant has fasted for approximately 10 hours). For the purposes of this study, fasting will be defined as nothing by mouth except water and any essential medications. If a participant is not fasting, the Investigator should reschedule the visit as soon as possible. LDL-C level will be calculated using the Friedewald equation unless TG≥400 mg/dL or LDL-C≤50 mg/dL; in both cases, LDL-C level will be measured directly by preparative ultracentrifugation, also referred to as beta quantification. Additionally, LDL-C will be measured by preparative ultracentrifugation, also referred to as beta quantification, at baseline (Visit 2) and at the end of the 12-week Treatment Period (Visit 4) for all participants.
The Modified ITT (mITT) Population will include all participants in the ITT Population who receive at least 1 dose of any study drug and have a baseline value for the LDL-C assessment. […]

[2] = Kinetic solubility in FaSSIF (pH 6.5) at 37° C.; assay type: physicochemical; conditions: FaSSIF pH 6.5, 37° C., as obicetrapib free acid
Text: (§2) The amorphous form has a higher kinetic solubility and dissolution rate than the crystalline form (and by extension obicetrapib itself). Both crystalline and amorphous obicetrapib hemicalcium kinetic solubility determinations were made in biorelevant media at different pHs, namely at about 5.0 (FeSSIF conditions) and at pH of about 6.5 (FaSSIF) conditions as set forth in Example 11.28.
The concentrations in Table X are those of obicetrapib (i.e., the free acid).
(§3) The solids were magnetically stirred at 600 RPM in a shaker bath and samples were drawn with a 1.0 ml syringe at T=15 mins, 30 mins, 60 mins, 90 mins and 120 mins. The solubility was measured using HPLC method provided by the client. The compound was added to 4.0 ml glass vials at approximately 20.0 mg/ml. Samples were agitated with a vortex mixer for about 5 minutes to ensure the presence of undissolved excess powder. The sample collected at each time point was centrifuged at 1200 RPM, filtered with 0.45 μm Polytetrafluoroethylene (PTFE) filters and diluted with methanol before HPLC analysis. In order to minimize the effect of potential analyte adsorption on the filter, the initial 0.5 mL of supernatant passing through the filter was discarded prior to collecting sample for HPLC analysis.

[3] = Kinetic solubility in FeSSIF (pH 5.0) at 37° C.; assay type: physicochemical; conditions: FeSSIF pH 5.0, 37° C., as obicetrapib free acid
Text: as §2
The concentrations in Table W are those of obicetrapib (i.e., the free acid).
as §3

CCOC(=O)N1c2ccc(C(F)(F)F)cc2[C@@H](N(Cc2cc(C(F)(F)F)cc(C(F)(F)F)c2)c2ncc(OCCCC(=O)O)cn2)C[C@H]1CC [Obicetrapib 10 mg]
Any TEAEs by maximum severity: Mild, (%) ([1]; (%)): (20.5) % | Any TEAEs by maximum severity: Moderate, (%) ([1]; (%)): (7.7) % | Any TEAEs by maximum severity: Severe, (%) ([1]; (%)): (10.3) % | Any TEAEs leading to death, (%) ([1]; (%)): (0.0) % | Any serious TEAEs (TESAEs), (%) ([1]; (%)): (5.1) % | Any study drug-related TEAEs by maximum severity: Mild, (%) ([1]; (%)): (10.3) % | Any study drug-related TEAEs by maximum severity: Moderate, (%) ([1]; (%)): (5.1) % | Any study drug-related TEAEs by maximum severity: Severe, (%) ([1]; (%)): (5.1) % | Any study drug-related TEAEs leading to discontinuation of study drug, (%) ([1]; (%)): (5.1) % | Any study drug-related TEAEs, (%) ([1]; (%)): (2.6) % | Any study drug-related TESAEs, (%) ([1]; (%)): (2.6) % | Any treatment-emergent AEs (TEAEs), (%) ([1]; (%)): (20.5) % | Any TEAEs leading to discontinuation of study drug, (%) ([1]; (%), first line with this label (r25)): (0.0) % | Any TEAEs leading to discontinuation of study drug, (%) ([1]; (%), last line of the table (r40)): (0.0) % | Any TEAEs by maximum severity: Mild, e ([1]; column e): 20 | Any TEAEs leading to death, e ([1]; column e): 0 | Any serious TEAEs (TESAEs), e ([1]; column e): 2 | Any study drug-related TEAEs by maximum severity: Mild, e ([1]; column e): 4 | Any study drug-related TEAEs leading to discontinuation of study drug, e ([1]; column e): 5 | Any study drug-related TESAEs, e ([1]; column e): 1 | Any treatment-emergent AEs (TEAEs), e ([1]; column e): 20 | Any TEAEs leading to discontinuation of study drug, e ([1]; column e, last line of the table (r40)): 0 | Lp(a) Day 84, Mean (Lp(a); Day 84): 74.75 nmol/L | Lp(a) Day 84, Median (Lp(a); Day 84): 20.85 nmol/L | Lp(a) Day 84 Maximum (Lp(a); Day 84): 327.7 nmol/L | Lp(a) Day 84 Minimum (Lp(a); Day 84): 2.8 nmol/L | Lp(a) Change from Baseline to Day 84, Mean (Lp(a)): -27.66 nmol/L | Lp(a) Change from Baseline to Day 84, Median (Lp(a)): -10.95 nmol/L | Lp(a) Change from Baseline to Day 84 Maximum (Lp(a)): 3.0 nmol/L | Lp(a) Change from Baseline to Day 84 Minimum (Lp(a)): -148.8 nmol/L | Lp(a) Percent Change from Baseline to Day 84 (%) Maximum (Lp(a)): 103.4% | Lp(a) Percent Change from Baseline to Day 84 (%) Minimum (Lp(a)): −84.6% | Lp(a) Percent Change from Baseline to Day 84 (%), Mean (Lp(a)): −24.44% | Lp(a) Percent Change from Baseline to Day 84 (%), Median (Lp(a)): −22.75%

CCOC(=O)N1c2ccc(C(F)(F)F)cc2[C@@H](N(Cc2cc(C(F)(F)F)cc(C(F)(F)F)c2)c2ncc(OCCCC(=O)[O-])cn2)C[C@H]1CC.CCOC(=O)N1c2ccc(C(F)(F)F)cc2[C@@H](N(Cc2cc(C(F)(F)F)cc(C(F)(F)F)c2)c2ncc(OCCCC(=O)[O-])cn2)C[C@H]1CC.[Ca+2] [Amorphous obicetrapib hemicalcium Batch #2]
Concentration in Solution ([2]; 15 mins): 0.090 mg/mL | Concentration in Solution ([2]; 30 mins): 0.14 mg/mL | Concentration in Solution ([2]; 60 mins): 0.229 mg/mL | Concentration in Solution ([2]; 90 mins): 0.293 mg/mL | Concentration in Solution ([2]; 120 mins): 0.387 mg/mL | Concentration in Solution ([3]; 15 mins): 0.502 mg/mL | Concentration in Solution ([3]; 30 mins): 0.618 mg/mL | Concentration in Solution ([3]; 60 mins): 0.628 mg/mL | Concentration in Solution ([3]; 90 mins): 0.658 mg/mL | Concentration in Solution ([3]; 120 mins): 0.642 mg/mL

CCOC(=O)N1c2ccc(C(F)(F)F)cc2[C@@H](N(Cc2cc(C(F)(F)F)cc(C(F)(F)F)c2)c2ncc(OCCCC(=O)[O-])cn2)C[C@H]1CC.CCOC(=O)N1c2ccc(C(F)(F)F)cc2[C@@H](N(Cc2cc(C(F)(F)F)cc(C(F)(F)F)c2)c2ncc(OCCCC(=O)[O-])cn2)C[C@H]1CC.[Ca+2] [Amorphous obicetrapib hemicalcium Batch #1]
Concentration in Solution ([2]; 15 mins): 0.060 mg/mL | Concentration in Solution ([2]; 30 mins): 0.099 mg/mL | Concentration in Solution ([2]; 60 mins): 0.163 mg/mL | Concentration in Solution ([2]; 90 mins): 0.201 mg/mL | Concentration in Solution ([2]; 120 mins): 0.244 mg/mL | Concentration in Solution ([3]; 15 mins): 0.520 mg/mL | Concentration in Solution ([3]; 30 mins): 0.661 mg/mL | Concentration in Solution ([3]; 60 mins): 0.675 mg/mL | Concentration in Solution ([3]; 90 mins): 0.696 mg/mL | Concentration in Solution ([3]; 120 mins): 0.675 mg/mL
